The record followed here is patent publication US20190100534A1, “Cephem Compounds with Latent Reactive Groups” (Gladius Pharmaceuticals, Inc., priority 2017, published 2019).

What all share (format): cell-based
Assay [1] concerns Pseudomonas aeruginosa PA (RR-2). In words: MIC determination. As to conditions: Pseudomonas aeruginosa; PA (RR-2); CAMH broth, 20 μM Apo-Transferrin, 37° C., 18 hours; read-out: Minimum Inhibitory Concentrations, PA (RR-2). Summed up: (§1)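 Overnight (18 h, 37 °C) microdilution assay. Pre-grown LB cultures were brought to 0.08-0.1 OD600 in cation-adjusted Mueller-Hinton broth; wells contained 20 μM apo-transferrin and compound between 64 and 0.125 μg/mL. Lowest clear-well concentration recorded as MIC.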

Assay [2] has as its system Pseudomonas aeruginosa PA (URMC-2). In words: MIC determination. As to conditions: Pseudomonas aeruginosa; PA (URMC-2); CAMH broth, 20 μM Apo-Transferrin, 37° C., 18 hours; read-out: Minimum Inhibitory Concentrations, PA (URMC-2). Summed up: as §1
The test system of assay [3] is Pseudomonas aeruginosa PA (URMC-3). In words: MIC determination. Conditions: Pseudomonas aeruginosa; PA (URMC-3); CAMH broth, 20 μM Apo-Transferrin, 37° C., 18 hours; read-out: Minimum Inhibitory Concentrations, PA (URMC-3). In short, it runs like this:
as §1

Assay [4] relates to Pseudomonas aeruginosa PA-RR-(98023895). In words: MIC determination. As to conditions: Pseudomonas aeruginosa; PA-RR-(98023895); CAMH broth, 20 μM Apo-Transferrin, 37° C., 18 hours; read-out: Minimum Inhibitory Concentrations, PA-RR-(98023895). In short, it runs like this: as §1
Assay [5] concerns Pseudomonas aeruginosa PA-RR-(G7294437). In words: MIC determination. Conditions: Pseudomonas aeruginosa; PA-RR-(G7294437); CAMH broth, 20 μM Apo-Transferrin, 37° C., 18 hours; read-out: Minimum Inhibitory Concentrations, PA-RR-(G7294437). Summed up:
as §1

Assay [6] deals with Pseudomonas aeruginosa PA-RR-(G7304100). In words: MIC determination. Conditions: Pseudomonas aeruginosa; PA-RR-(G7304100); CAMH broth, 20 μM Apo-Transferrin, 37° C., 18 hours; read-out: Minimum Inhibitory Concentrations, PA-RR-(G7304100). Summed up:
as §1

Assay [7] relates to Pseudomonas aeruginosa PA-RR-(G7305586). The experiment in a line: MIC determination. Conditions: Pseudomonas aeruginosa; PA-RR-(G7305586); CAMH broth, 20 μM Apo-Transferrin, 37° C., 18 hours; read-out: Minimum Inhibitory Concentrations, PA-RR-(G7305586). In short, it runs like this: as §1
Assay [8] relates to Pseudomonas aeruginosa PA-RR-(purple Fre D). In words: MIC determination. Conditions: Pseudomonas aeruginosa, CAMH broth, 20 μM Apo-Transferrin, 37° C., 18 hours, read-out: Minimum Inhibitory Concentrations, PA-RR-(purple Fre D). In short, it runs like this:
as §1

For a further assay, the system named is E. coli J53 Alone. The experiment in a line: MIC determination, isogenic E. coli strains. Conditions: for MIC: Escherichia coli, J53ALONE, 18 h, read-out: Mimimum Inhibitory Concentrations, J53 Alone; for Mimimum Inhibitory Concentrations, J53 Alone: Table 4-2, CAMH broth, 20 μM Apo-Transferrin, 37° C., 18 hours. In short, it runs like this: (§2)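 MIC read as the lowest compound level giving a transparent well after 18 h at 37° C. Strains: parent E. coli J53 and isogenic transformants expressing plasmid-borne (pBC-SK(+)) beta-lactamases such as DHA-1; inoculum 0.5 McFarland; CAMH broth plus 20 μM apo-transferrin; compound 64 μg/mL downward, 2-fold dilutions.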

Assay [9] deals with Isogenic E. coli J58 strain carrying DHA-1. In words: MIC determination, isogenic E. coli strains. As to conditions: Escherichia coli, 18 h, read-out: Mimimum Inhibitory Concentrations, DHA-1. Summed up:
as §2

The subject of assay [10] is Isogenic E. coli J58 strain carrying TEM-26. In words: MIC determination, isogenic E. coli strains. Conditions: Escherichia coli, 18 h, read-out: Mimimum Inhibitory Concentrations, TEM-26. Summed up: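 E. coli J53 carried a pBC-SK(+) plasmid expressing TEM-26 β-lactamase. Compounds were serially halved from […] in CAMH broth containing 20 μM apo-transferrin, inoculated from a 0.5 McFarland culture and held overnight (18 h, 37° C); MIC read as the lowest concentration without visible growth.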

For assay [11], the system named is Isogenic E. coli J58 strain carrying CTX-M-14. The experiment in a line: MIC determination, isogenic E. coli strains. Conditions: Escherichia coli, 18 h, read-out: Mimimum Inhibitory Concentrations, CTX-M-14. Summed up: (§3)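 Isogenic E. coli J53 carrying plasmid-encoded CTX-M-14 or CTX-M-15 (ampicillin-selected), standardized to 0.08-0.1 OD600, incubated overnight (18 h, 37° C.) in CAMH broth plus 20 μM apo-transferrin over 2-fold compound dilutions starting at 64 μg/mL. Lowest concentration with no visible growth recorded as MIC.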

Assay [12] deals with Isogenic E. coli J58 strain carrying CTX-M-15. The experiment in a line: MIC determination, isogenic E. coli strains. As to conditions: Escherichia coli, 18 h, read-out: Mimimum Inhibitory Concentrations, CTX-M-15. Summed up:
as §3

The test system of assay [13] is Isogenic E. coli J58 strain carrying KPC-2. In words: MIC determination, isogenic E. coli strains. As to conditions: Escherichia coli, 18 h, read-out: Mimimum Inhibitory Concentrations, KPC-2. In short, it runs like this:
(§4)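 Strain: E. coli J53 electroporated with a pBC-SK(+) plasmid encoding the KPC enzyme, selected on ampicillin. Twofold dilutions ([…]) were made in CAMH broth containing 20 μM apo-transferrin and inoculated at 0.5 McFarland. After overnight (18 h) growth at 37 °C, MIC was read as the lowest concentration with no visible growth.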

For assay [14], the system named is Isogenic E. coli J58 strain carrying KPC-3. The experiment in a line: MIC determination, isogenic E. coli strains. Conditions: Escherichia coli, 18 h, read-out: Mimimum Inhibitory Concentrations, KPC-3. In short, it runs like this: as §4
The subject of assay [15] is Isogenic E. coli J58 strain carrying NDM-1. In words: MIC determination, isogenic E. coli strains. Conditions: Escherichia coli, 18 h, read-out: Mimimum Inhibitory Concentrations, NDM-1. Summed up:
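Broth microdilution was run in cation-adjusted Mueller-Hinton broth supplemented with 20 μM apo-transferrin, using a 64 μg/mL top concentration diluted twofold. The inoculum was NDM-1-expressing E. coli J53 (pBC-SK(+) plasmid) at 0.5 McFarland. After overnight incubation (18 h, 37° C), the lowest compound concentration preventing visible growth was recorded as the MIC.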

For assay [16], the system named is Isogenic E. coli J58 strain carrying VIM-2. The experiment in a line: MIC determination, isogenic E. coli strains. Conditions: Escherichia coli, 18 h, read-out: Mimimum Inhibitory Concentrations, VIM-2. Summed up: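 Broth microdilution in cation-adjusted Mueller-Hinton with 20 μM apo-transferrin, compound serially halved from 64 μg/mL, read by eye after 18 h at 37 °C as lowest clear well. Inoculum: VIM-2-expressing E. coli J53 (pBC-SK(+) plasmid), adjusted to 0.5 McFarland.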

Take `CC(C)(O/N=C(\C(=O)N[C@@H]1C(=O)N2C(C(=O)O)=C(C=Cc3ccc(C[N+](C)(C)Cc4cc(O)c(O)c(Cl)c4)cc3)CS[C@H]12)c1csc(N)n1)C(=O)O` (mixture of isomers) [Compound 436, N-(4-((E/Z)-2-((6R,7R)-7-((Z)-2-(2-aminothiazol-4-yl)-2-(((2-carboxypropan-2-yl)oxy)imino)acetamido)-2-carboxy-8-oxo-5-thia-1-azabicyclo[4.2.0]oct-2-en-3-yl)vinyl)benzyl)-1-(3-chloro-4,5-dihydroxyphenyl)-N,N-dimethylmethanaminium]: the MIC in [1] is 4 µg/mL; in assay [2] it was 8 µg/mL; in assay [3], 64 µg/mL; in [4], 4 µg/mL; in assay [5], 0.5 µg/mL; in [6], 4 µg/mL. Further, the MIC in [7] came to 8 µg/mL; in [8], 2 µg/mL; in the assay with E. coli J53 Alone it was 0.13 µg/mL; in [9], 0.25 µg/mL; in assay [10], 2 µg/mL; in assay [11], 1 µg/mL. For the same compound, the MIC is 0.5 µg/mL in assay [12]; 64 µg/mL in [13]; 8 µg/mL in [14]; above 64 µg/mL in assay [15]; 1 µg/mL in [16]. In the assay on E. coli J53 Alone, the “Mimimum Inhibitory Concentrations, J53 Alone” value was determined as 0.13 microgram/mL.
With `Cn1c[n+](Cc2ccc(C=CC3=C(C(=O)O)N4C(=O)[C@@H](NC(=O)/C(=N\OC(C)(C)C(=O)O)c5csc(N)n5)[C@H]4SC3)cc2)cc1C(=O)Nc1ccc(O)c(O)c1` (mixture of isomers) [Compound 411, 3-(4-((E/Z)-2-((6R,7R)-7-((Z)-2-(2-aminothiazol-4-yl)-2-(((2-carboxypropan-2-yl)oxy)imino)acetamido)-2-carboxy-8-oxo-5-thia-1-azabicyclo[4.2.0]oct-2-en-3-yl)vinyl)benzyl)-5-((3,4-dihydroxyphenyl)carbamoyl)-1-methyl-1H-imidazol-3-ium], the MIC in assay [1] is 4 µg/mL; in assay [2], 4 µg/mL; in assay [3], 0.5 µg/mL; in assay [4], 8 µg/mL; in assay [5], 1 µg/mL; in assay [6] it was 1 µg/mL. In addition, the MIC in assay [7] turned out to be 16 µg/mL; in assay [8], 2 µg/mL; with E. coli J53 Alone, 0.5 µg/mL; in assay [9] it was 1 µg/mL; in assay [10] it was 8 µg/mL; in assay [11] it was 4 µg/mL. Also, the MIC is 0.5 µg/mL in assay [12]; 32 µg/mL in [13]; 8 µg/mL in [14]; above 64 µg/mL in [15]; 2 µg/mL in assay [16]. For the same compound, the “Mimimum Inhibitory Concentrations, J53 Alone” value in the assay on E. coli J53 Alone is 0.5 microgram/mL.
`CC(C)(O/N=C(\C(=O)N[C@@H]1C(=O)N2C(C(=O)O)=C(C=Cc3ccc(C[n+]4cccc(-c5ccc(O)c(O)c5)c4)cc3)CS[C@H]12)c1csc(N)n1)C(=O)O` (mixture of isomers) [Compound 413, 1-(4-((E/Z)-2-((6R,7R)-7-((Z)-2-(2-aminothiazol-4-yl)-2-(((2-carboxypropan-2-yl)oxy)imino)acetamido)-2-carboxy-8-oxo-5-thia-1-azabicyclo[4.2.0]oct-2-en-3 yl)vinyl)benzyl)-3-(3,4-dihydroxyphenyl)pyridin-1-ium]: the MIC in assay [1] was 2 µg/mL; in [2], 4 µg/mL; in assay [3], 0.13 µg/mL; in assay [4], 4 µg/mL; in assay [5] it was 1 µg/mL; in [6], at most 0.06 µg/mL. The MIC stood at 8 µg/mL in assay [7]; 2 µg/mL in assay [8]; 0.25 µg/mL in the assay on E. coli J53 Alone; 0.13 µg/mL in [9]; 1 µg/mL in assay [10]; 2 µg/mL in [11]. For the same compound, the MIC in assay [12] was 2 µg/mL; in assay [13] it was 8 µg/mL; in [14], 4 µg/mL; in assay [15], above 64 µg/mL; in assay [16], 0.5 µg/mL. The “Mimimum Inhibitory Concentrations, J53 Alone” value with E. coli J53 Alone worked out at 0.25 microgram/mL.
As for `Cc1c[n+](Cc2ccc(C=CC3=C(C(=O)O)N4C(=O)[C@@H](NC(=O)/C(=N\OC(C)(C)C(=O)O)c5csc(N)n5)[C@H]4SC3)cc2)ccc1-c1ccc(O)c(O)c1` (mixture of isomers) [Compound 422, 1-(4-((E/Z)-2-((6R,7R)-7-((Z)-2-(2-aminothiazol-4-yl)-2-(((2-carboxypropan-2-yl)oxy)imino)acetamido)-2-carboxy-8-oxo-5-thia-1-azabicyclo[4.2.0]oct-2-en-3-yl)vinyl)benzyl)-4-(3,4-dihydroxyphenyl)-3-methylpyridin-1-ium], the MIC was 2 µg/mL in assay [1]; 4 µg/mL in [2]; at most 0.06 µg/mL in [3]; 8 µg/mL in assay [4]; 2 µg/mL in [5]; at most 0.06 µg/mL in assay [6]. Besides, the MIC in assay [7] came to 16 µg/mL; in assay [8], 1 µg/mL; in the assay on E. coli J53 Alone it was 0.25 µg/mL; in [9], 0.25 µg/mL; in [10], 4 µg/mL; in assay [11], 4 µg/mL. Also, the MIC in assay [12] was 4 µg/mL; in [13], 16 µg/mL; in [14], 8 µg/mL; in assay [15], above 64 µg/mL; in [16], 1 µg/mL. Besides, in the assay on E. coli J53 Alone, the “Mimimum Inhibitory Concentrations, J53 Alone” value came out at 0.25 microgram/mL.
